Assay results reported in ChEMBL document CHEMBL4190316, “Synthesis and biological evaluation of 4-biphenylamino-5-halo-2(5H)-furanones as potential anticancer agents” (Eur J Med Chem, 2017).

Experiments:
C6 = assay: Cytotoxicity against rat C6 cells assessed as reduction in cell viability after 72 hrs by MTT assay; type: functional, cell-based; conditions: C6, 72 h
HaCaT = assay: Cytotoxicity against human HaCaT cells assessed as reduction in cell viability after 72 hrs by MTT assay; type: cell-based
CNE = assay: Cytotoxicity against human CNE1 cells assessed as reduction in cell viability after 72 hrs by MTT assay; type: functional, cell-based
MDA-MB-231 = assay: Cytotoxicity against human MDA-MB-231 cells assessed as reduction in cell viability after 72 hrs by MTT assay; type: functional, cell-based; conditions: MDA-MB-231, 72 h
MCF7 = assay: Cytotoxicity against human MCF7 cells assessed as reduction in cell viability after 72 hrs by MTT assay; type: functional, cell-based; conditions: MCF7, 72 h
HepG2 = assay: Cytotoxicity against human HepG2 cells assessed as reduction in cell viability after 72 hrs by MTT assay; type: functional, cell-based; conditions: HepG2, 72 h
[1] = Octanol-water partition coefficient, log P of the compound at 10 mM after 24 hrs by UV-vis spectroscopic method; type: physicochemical
[2] = Cytotoxicity against human NCI-EC1 cells assessed as reduction in cell viability after 72 hrs by MTT assay; type: functional, cell-based

Row | Compound | logP at 24 h, 10000 µM [1] | IC50 (C6) | IC50 (HaCaT) | IC50 (CNE) | IC50 (MDA-MB-231) | IC50 (MCF7) | IC50 (HepG2) | IC50 [2]
1 | CCOC1OC(=O)C(Cl)=C1Nc1ccc(-c2ccc(N)cc2)cc1 (centres undefined) | 1.64 | 49.6 µM | 44.8 µM | > 100 µM | 37.7 µM | > 100 µM | > 100 µM | 
2 | CCOC1OC(=O)C(Br)=C1Nc1ccc(-c2ccc(N)cc2)cc1 (centres undefined) | 1.58 | 56.9 µM | 70.8 µM | 90.1 µM | 48.6 µM | 58.1 µM | 55.8 µM | 82.8 µM
3 | CCOC1OC(=O)C(Cl)=C1Nc1ccc(-c2ccccc2)cc1 (centres undefined) | 1.33 | 47.9 µM | 49.8 µM | 47 µM | 38.5 µM | 44.6 µM | 40.1 µM | 56 µM

More lines, main results first:

Row | logP at 24 h, 10000 µM [1] | Compound | IC50 (C6) | IC50 (HaCaT) | IC50 (CNE) | IC50 (MDA-MB-231) | IC50 (MCF7) | IC50 (HepG2) | IC50 [2]
4 | 1.74 | CCOC1OC(=O)C(Br)=C1Nc1ccc(-c2ccccc2)cc1 (centres undefined) | 27.4 µM | 50.8 µM | 41.8 µM | 70.4 µM | 46.6 µM | 34.9 µM | 55 µM
5 | 1.33 | COC1OC(=O)C(Br)=C1Nc1ccc(-c2ccccc2)cc1 (centres undefined) | 37.9 µM | 67.5 µM | 52.6 µM | 97.5 µM | 37.8 µM | 45.2 µM | 48 µM
